Where two headings read alike, the source gives them in different places.
Columns and labels:
TSSK1B = TSSK1B (Homo sapiens, UniProt Q9BXA7); assay: KINOMEscan: TSSK1B; assay type: binding; details: 100 nM, read-out: Percent Control
[1] = target: RSK3(Kin.Dom.1-N-terminal) (Homo sapiens, UniProt Q15349); assay: KINOMEscan: RSK3(Kin.Dom.1-N-terminal); assay type: binding; details: 100 nM, read-out: Percent Control
HCK = HCK (Homo sapiens, UniProt P08631); assay: KINOMEscan: HCK; assay type: binding; details: 1000 nM, read-out: Percent Control
EGFR(L858R) = EGFR(L858R) (Homo sapiens, UniProt P00533, L858R); assay: KINOMEscan: EGFR(L858R); assay type: binding; details: 1000 nM, read-out: Percent Control
FGR = FGR (Homo sapiens, UniProt P09769); assay: KINOMEscan: FGR; assay type: binding; details: 1000 nM, read-out: Percent Control
TEC = TEC (Homo sapiens, UniProt P42680); assay: KINOMEscan: TEC; assay type: binding; details: 100 nM, read-out: Percent Control
EIF2AK1 = EIF2AK1 (Homo sapiens, UniProt Q9BQI3); assay: KINOMEscan: EIF2AK1; assay type: binding; details: 1000 nM, read-out: Percent Control
EGFR(L861Q) = EGFR(L861Q) (Homo sapiens, UniProt P00533, L861Q); assay: KINOMEscan: EGFR(L861Q); assay type: binding; details: 1000 nM, read-out: Percent Control
TSSK3 = TSSK3 (Homo sapiens, UniProt Q96PN8); assay: KINOMEscan: TSSK3; assay type: binding; details: 100 nM, read-out: Percent Control
FLT3(ITD) = assay: KINOMEscan: FLT3(ITD); assay type: binding, human; details: 1000 nM
FLT3(ITD,D835V) = assay: KINOMEscan: FLT3(ITD,D835V); assay type: binding, human; details: 1000 nM
RET(M918T) = RET(M918T) (Homo sapiens, UniProt P07949, M918T); assay: KINOMEscan: RET(M918T); assay type: binding; details: 100 nM, read-out: Percent Control
MEK6 = MEK6 (Homo sapiens, UniProt P52564); assay: KINOMEscan: MEK6; assay type: binding; details: 1000 nM, read-out: Percent Control
IRAK1 = IRAK1 (Homo sapiens, UniProt P51617); assay: KINOMEscan: IRAK1; assay type: binding
Procedure: The structure and synthesis of VIP152 were recently described by Lücking et al.. (Fig. 1A); however, the selectivity of the molecule in cellular systems has yet to be explored. […] We also performed this experiment at 1000 nM, where CDK9 was inhibited at 99%. […] We found a strong concordance between our data and those of Lücking when comparing the most inhibited kinases. Potential off-target effects of VIP152 were next tested in vitro at a concentration of 10 µM for off-target activity against a broad range of receptors, transporters, ion channels, and enzymes (n = 138) using the Eurofins Diversity Panel.
Kinomescan Kinase Profiling Assay
Kinomescan Assay was performed at DiscoverRX and described in Fabian, et al. 2005, Nat.
Biotechnol. In brief, kinases were produced and subsequently tagged with DNA for qPCR detection.
Streptavidin-coated magnetic beads were bound to biotinylated kinase ligands to serve as a solid support.
VIP152 was dissolved in DMSO and tested across a 10 serial threefold dilution set and compared to a test compound and a DMSO control. Kinases which were inhibited by VIP152 would not be bound to the solid-support resulting in decreased substrate for the qPCR reaction. Kinome map was produced via TreeSpot Analysis from DiscoverRX. […]
NanoBRETTM Target Engagement Assay Protocol […]
Complete 20X NanoBRET Tracer Reagent was prepared with Tracer Dilution Buffer and dispensed at a ratio of 1:20 Reagent to cells in the tube. The cell

MAP3K4 = MAP3K4 (Homo sapiens, UniProt Q9Y6R4); assay: KINOMEscan: MAP3K4; assay type: binding; details: 1000 nM, read-out: Percent Control
MST1 = MST1 (Homo sapiens, UniProt Q13043); assay: KINOMEscan: MST1; assay type: binding; details: 1000 nM, read-out: Percent Control
HG-3 = assay: MTS proliferation assay; assay type: cell-based
RIOK1 = RIOK1 (Homo sapiens, UniProt Q9BRS2); assay: KINOMEscan: RIOK1; assay type: binding; details: 100 nM, read-out: Percent Control
ERN1 = ERN1 (Homo sapiens, UniProt O75460); assay: KINOMEscan: ERN1; assay type: binding; details: 1000 nM, read-out: Percent Control
CDC2L2 = CDC2L2 (Homo sapiens, UniProt Q9UQ88); assay: KINOMEscan: CDC2L2; assay type: binding; details: 1000 nM, read-out: Percent Control
SYK = SYK (Homo sapiens, UniProt P43405); assay: KINOMEscan: SYK; assay type: binding; details: 100 nM, read-out: Percent Control
CAMKK1 = CAMKK1 (Homo sapiens, UniProt Q8N5S9); assay: KINOMEscan: CAMKK1; assay type: binding; details: 1000 nM, read-out: Percent Control
CAMK2D = CAMK2D (Homo sapiens, UniProt Q13557); assay: KINOMEscan: CAMK2D; assay type: binding; details: 1000 nM, read-out: Percent Control
DDR2 = DDR2 (Homo sapiens, UniProt Q16832); assay: KINOMEscan: DDR2; assay type: binding; details: 1000 nM, read-out: Percent Control
EPHA7 = EPHA7 (Homo sapiens, UniProt Q15375); assay: KINOMEscan: EPHA7; assay type: binding; details: 1000 nM, read-out: Percent Control
CSNK1G2 = CSNK1G2 (Homo sapiens, UniProt P78368); assay: KINOMEscan: CSNK1G2; assay type: binding; details: 1000 nM, read-out: Percent Control
Melatonin MT1 = Melatonin MT1 (Homo sapiens, UniProt P48039); assay: Eurofins Diversity Panel; assay type: binding; details: hum, Conc. 10 μM
[2] = test system: HG-3 and MEC-1 cell lines; assay: Western blot of treated CLL cell lines; assay type: cell-based, human
ALK(C1156Y) = ALK(C1156Y) (Homo sapiens, UniProt Q9UM73, C1156Y); assay: KINOMEscan: ALK(C1156Y); assay type: binding; details: 1000 nM, read-out: Percent Control
PFPK5(P.falciparum) = PFPK5(P.falciparum) (Plasmodium falciparum, UniProt P61075); assay: DiscoverX KINOMEscan kinase profiling: PFPK5(P.falciparum); assay type: binding; details: PFPK5(P.falciparum) (Entrez MAL13P1.279); 100 nM; read-out: Percent Control
PFPK5(P.falciparum), sequence (P61075 whole entry): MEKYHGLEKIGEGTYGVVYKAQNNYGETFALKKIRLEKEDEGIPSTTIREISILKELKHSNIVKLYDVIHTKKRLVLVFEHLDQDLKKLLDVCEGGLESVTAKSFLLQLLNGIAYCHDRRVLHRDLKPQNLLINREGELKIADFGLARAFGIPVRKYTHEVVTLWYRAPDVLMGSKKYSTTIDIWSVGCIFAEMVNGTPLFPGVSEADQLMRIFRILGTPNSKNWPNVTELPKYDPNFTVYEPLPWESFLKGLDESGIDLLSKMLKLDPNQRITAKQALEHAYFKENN

IRAK1, sequence (P51617 whole entry): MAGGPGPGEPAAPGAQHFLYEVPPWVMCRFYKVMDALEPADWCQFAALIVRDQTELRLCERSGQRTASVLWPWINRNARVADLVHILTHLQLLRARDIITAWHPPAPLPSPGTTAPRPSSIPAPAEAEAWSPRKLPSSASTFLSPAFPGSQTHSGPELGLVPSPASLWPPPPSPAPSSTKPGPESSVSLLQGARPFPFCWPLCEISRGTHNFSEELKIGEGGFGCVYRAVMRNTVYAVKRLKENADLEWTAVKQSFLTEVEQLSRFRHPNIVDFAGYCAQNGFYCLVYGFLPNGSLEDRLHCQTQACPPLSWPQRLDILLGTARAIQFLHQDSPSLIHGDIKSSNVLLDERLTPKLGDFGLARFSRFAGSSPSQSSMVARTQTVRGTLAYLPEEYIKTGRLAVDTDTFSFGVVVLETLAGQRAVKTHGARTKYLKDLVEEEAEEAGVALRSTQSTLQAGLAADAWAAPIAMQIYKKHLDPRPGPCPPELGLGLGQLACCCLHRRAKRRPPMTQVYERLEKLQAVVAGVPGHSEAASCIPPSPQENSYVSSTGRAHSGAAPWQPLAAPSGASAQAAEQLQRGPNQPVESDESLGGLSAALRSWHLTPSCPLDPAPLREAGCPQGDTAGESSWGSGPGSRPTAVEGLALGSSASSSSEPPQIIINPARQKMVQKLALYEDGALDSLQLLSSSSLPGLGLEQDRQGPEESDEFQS
EGFR(L858R), sequence (P00533 25-1210 L858R): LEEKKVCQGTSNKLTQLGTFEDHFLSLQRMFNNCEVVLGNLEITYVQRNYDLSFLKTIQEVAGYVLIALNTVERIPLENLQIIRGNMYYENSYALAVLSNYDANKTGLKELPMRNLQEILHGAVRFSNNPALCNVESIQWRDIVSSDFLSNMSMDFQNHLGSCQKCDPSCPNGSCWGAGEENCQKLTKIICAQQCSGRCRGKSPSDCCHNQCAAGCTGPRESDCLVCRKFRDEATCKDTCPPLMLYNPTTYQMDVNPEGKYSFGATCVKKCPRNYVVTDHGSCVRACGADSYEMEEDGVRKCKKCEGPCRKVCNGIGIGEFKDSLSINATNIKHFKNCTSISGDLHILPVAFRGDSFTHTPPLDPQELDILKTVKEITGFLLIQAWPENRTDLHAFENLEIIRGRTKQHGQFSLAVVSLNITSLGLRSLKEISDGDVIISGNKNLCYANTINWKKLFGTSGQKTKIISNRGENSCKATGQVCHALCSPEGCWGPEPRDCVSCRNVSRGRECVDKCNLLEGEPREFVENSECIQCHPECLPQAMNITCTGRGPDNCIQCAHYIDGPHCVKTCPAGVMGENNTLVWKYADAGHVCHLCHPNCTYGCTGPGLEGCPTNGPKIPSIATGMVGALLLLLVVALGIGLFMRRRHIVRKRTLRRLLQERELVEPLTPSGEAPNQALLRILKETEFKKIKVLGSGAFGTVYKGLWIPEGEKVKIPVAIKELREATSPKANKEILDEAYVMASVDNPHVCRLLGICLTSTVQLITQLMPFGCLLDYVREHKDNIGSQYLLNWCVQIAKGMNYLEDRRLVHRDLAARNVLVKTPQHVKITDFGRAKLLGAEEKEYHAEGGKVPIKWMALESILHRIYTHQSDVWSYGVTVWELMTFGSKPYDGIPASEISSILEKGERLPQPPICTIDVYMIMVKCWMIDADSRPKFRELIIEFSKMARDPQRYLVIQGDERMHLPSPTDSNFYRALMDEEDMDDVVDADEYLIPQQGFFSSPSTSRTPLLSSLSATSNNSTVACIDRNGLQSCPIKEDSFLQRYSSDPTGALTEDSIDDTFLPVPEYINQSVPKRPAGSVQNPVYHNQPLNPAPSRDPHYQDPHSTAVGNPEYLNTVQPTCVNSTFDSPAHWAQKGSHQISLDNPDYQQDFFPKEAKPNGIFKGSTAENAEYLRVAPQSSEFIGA
TSSK3, sequence (Q96PN8 whole entry): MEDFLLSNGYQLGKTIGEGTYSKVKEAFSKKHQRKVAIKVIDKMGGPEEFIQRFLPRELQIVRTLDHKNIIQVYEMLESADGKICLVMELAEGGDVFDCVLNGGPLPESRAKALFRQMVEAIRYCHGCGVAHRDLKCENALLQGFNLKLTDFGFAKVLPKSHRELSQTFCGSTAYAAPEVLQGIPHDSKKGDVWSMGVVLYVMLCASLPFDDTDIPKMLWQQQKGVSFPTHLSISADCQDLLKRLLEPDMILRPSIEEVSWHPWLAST
DDR2, sequence (Q16832 22-855): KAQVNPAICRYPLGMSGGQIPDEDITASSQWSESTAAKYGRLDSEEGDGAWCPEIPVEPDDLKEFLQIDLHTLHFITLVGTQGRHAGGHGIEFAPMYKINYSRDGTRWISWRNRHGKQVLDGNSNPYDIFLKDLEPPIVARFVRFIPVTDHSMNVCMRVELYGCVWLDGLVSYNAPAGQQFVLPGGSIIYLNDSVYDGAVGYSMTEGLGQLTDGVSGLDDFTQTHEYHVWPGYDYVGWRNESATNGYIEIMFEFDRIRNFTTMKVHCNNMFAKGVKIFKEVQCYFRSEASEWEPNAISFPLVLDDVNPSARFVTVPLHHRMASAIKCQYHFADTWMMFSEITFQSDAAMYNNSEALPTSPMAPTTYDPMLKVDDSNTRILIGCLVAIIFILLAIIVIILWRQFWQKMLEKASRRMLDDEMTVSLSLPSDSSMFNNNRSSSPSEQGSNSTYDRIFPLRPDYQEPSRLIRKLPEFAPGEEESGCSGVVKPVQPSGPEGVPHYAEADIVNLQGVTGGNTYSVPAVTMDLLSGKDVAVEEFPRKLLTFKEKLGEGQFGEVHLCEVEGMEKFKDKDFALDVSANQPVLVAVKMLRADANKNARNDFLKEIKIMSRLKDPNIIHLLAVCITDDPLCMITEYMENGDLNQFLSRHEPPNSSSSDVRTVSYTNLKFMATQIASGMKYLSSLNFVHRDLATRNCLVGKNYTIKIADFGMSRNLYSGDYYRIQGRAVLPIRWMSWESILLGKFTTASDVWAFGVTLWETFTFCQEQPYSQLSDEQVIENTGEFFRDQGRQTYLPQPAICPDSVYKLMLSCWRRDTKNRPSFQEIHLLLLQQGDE
Melatonin MT1, sequence (P48039 whole entry): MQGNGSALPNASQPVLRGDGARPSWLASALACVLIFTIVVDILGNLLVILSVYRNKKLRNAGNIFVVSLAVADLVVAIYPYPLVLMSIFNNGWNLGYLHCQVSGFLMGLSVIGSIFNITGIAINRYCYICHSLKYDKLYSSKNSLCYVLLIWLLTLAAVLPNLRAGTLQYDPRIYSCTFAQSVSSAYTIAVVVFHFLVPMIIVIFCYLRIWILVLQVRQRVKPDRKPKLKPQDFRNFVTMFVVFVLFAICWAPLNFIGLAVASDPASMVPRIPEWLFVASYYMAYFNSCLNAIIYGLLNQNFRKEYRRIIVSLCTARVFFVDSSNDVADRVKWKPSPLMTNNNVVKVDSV
TSSK1B, sequence (Q9BXA7 whole entry): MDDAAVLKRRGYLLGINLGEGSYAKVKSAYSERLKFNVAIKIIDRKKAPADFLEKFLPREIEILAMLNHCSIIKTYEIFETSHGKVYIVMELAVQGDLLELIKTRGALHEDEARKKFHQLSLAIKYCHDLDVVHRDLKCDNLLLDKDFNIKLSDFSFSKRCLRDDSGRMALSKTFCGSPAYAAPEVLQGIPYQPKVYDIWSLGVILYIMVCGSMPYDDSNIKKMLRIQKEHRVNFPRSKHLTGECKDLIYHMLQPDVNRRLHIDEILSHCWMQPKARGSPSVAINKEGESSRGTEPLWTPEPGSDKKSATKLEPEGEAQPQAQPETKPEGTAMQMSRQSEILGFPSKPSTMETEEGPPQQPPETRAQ
CSNK1G2, sequence (P78368 whole entry): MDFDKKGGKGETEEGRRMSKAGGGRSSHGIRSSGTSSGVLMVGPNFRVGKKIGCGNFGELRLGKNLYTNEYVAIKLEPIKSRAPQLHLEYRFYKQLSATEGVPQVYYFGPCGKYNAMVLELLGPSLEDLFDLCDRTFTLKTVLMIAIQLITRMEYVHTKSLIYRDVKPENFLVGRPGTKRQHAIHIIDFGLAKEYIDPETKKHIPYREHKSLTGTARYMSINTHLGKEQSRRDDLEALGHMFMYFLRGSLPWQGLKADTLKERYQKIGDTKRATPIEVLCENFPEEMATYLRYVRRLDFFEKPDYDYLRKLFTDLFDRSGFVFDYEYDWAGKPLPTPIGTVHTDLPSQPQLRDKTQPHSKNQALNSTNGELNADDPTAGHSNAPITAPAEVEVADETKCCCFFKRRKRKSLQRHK
HCK, sequence (P08631 whole entry): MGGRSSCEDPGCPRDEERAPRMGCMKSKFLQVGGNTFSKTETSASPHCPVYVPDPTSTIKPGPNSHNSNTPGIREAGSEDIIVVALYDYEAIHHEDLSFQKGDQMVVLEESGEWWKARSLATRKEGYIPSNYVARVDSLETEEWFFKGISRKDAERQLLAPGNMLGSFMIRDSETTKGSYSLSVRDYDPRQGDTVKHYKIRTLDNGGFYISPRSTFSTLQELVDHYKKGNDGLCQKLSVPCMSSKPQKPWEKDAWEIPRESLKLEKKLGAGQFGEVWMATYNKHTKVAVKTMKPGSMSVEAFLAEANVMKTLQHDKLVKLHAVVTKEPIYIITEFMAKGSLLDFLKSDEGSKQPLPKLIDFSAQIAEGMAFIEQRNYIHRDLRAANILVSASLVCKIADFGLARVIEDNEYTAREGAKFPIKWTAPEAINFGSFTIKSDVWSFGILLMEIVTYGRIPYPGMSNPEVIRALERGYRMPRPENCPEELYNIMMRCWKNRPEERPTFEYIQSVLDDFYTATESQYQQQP

COc1cc(F)ccc1-c1cc(Nc2cc(CS(C)(=N)=O)ccn2)ncc1F (centres unmarked) [VIP152]
remaining binding at 0.1 µM (TSSK1B): 78%
remaining binding at 0.1 µM [1]: 100%
remaining binding at 1 µM (HCK): 82%
remaining binding at 1 µM (EGFR(L858R)): 76%
remaining binding at 1 µM (FGR): 66%
remaining binding at 0.1 µM (TEC): 100%
remaining binding at 1 µM (EIF2AK1): 100%
remaining binding at 1 µM (EGFR(L861Q)): 100%
remaining binding at 0.1 µM (TSSK3): 96%
Percent Control (FLT3(ITD)): 87%
Percent Control (FLT3(ITD,D835V)): 60%
remaining binding at 0.1 µM (RET(M918T)): 100%
remaining binding at 1 µM (MEK6): 94%
inhibition at 1 µM (IRAK1; 1000 nM): 98.4%
remaining binding at 0.1 µM (IRAK1; IRAK1, 100 nM, read-out: Percent Control): 59%
remaining binding at 1 µM (IRAK1; IRAK1, 1000 nM, read-out: Percent Control): 1.6%
remaining binding at 1 µM (MAP3K4): 82%
remaining binding at 1 µM (MST1): 92%
IC50 (HG-3; Homo sapiens, 24, 48, and 72 h, read-out: proliferation IC50): 50 to 67 nM
IC50 (HG-3; Homo sapiens, two-hour drugging followed by washout, MTS after 72 h, read-out: 50% growth inhibition): 970 nM
remaining binding at 0.1 µM (RIOK1): 100%
remaining binding at 1 µM (ERN1): 86%
remaining binding at 1 µM (CDC2L2): 78%
remaining binding at 0.1 µM (SYK): 100%
remaining binding at 1 µM (CAMKK1): 13%
remaining binding at 1 µM (CAMK2D): 69%
remaining binding at 1 µM (DDR2): 27%
remaining binding at 1 µM (EPHA7): 100%
remaining binding at 1 µM (CSNK1G2): 93%
inhibition at 10 µM (Melatonin MT1): 6%
MCL1 protein levels ([2]; 0.1 µM, 8 h): decreased
Phosphorylation of serine 5 (marker of CDK7 activity) ([2]; 0.1 µM, 8 h): not diminished
glycogen synthase phosphorylation at serine 641 (marker of GSK3α/β activity) ([2]; 0.1 µM, 8 h): did not observe a decrease
phospho-serine 2 (pS2) of RNA Polymerase II ([2]; 0.1 µM, 8 h): decrease
MCL1 ([2]; 1 µM, across 24 h): decreased
c-MYC ([2]; 1 µM, across 24 h): decreased
pS2 ([2]; 1 µM, across 24 h): decreased
pS5 ([2]; 1 µM, across 24 h): minimal change
PARP cleavage (induction of apoptosis) ([2]; beginning at six hours): detect PARP cleavage
remaining binding at 1 µM (ALK(C1156Y)): 71%
remaining binding at 0.1 µM (PFPK5(P.falciparum)): 100%
